Assay results reported in the supplement of paper PMC10307832.

Each cell line was assayed with C(C(=O)C(=O)O)Br [Bromopyruvate] + Cc1nc(Nc2ncc(C(=O)Nc3c(C)cccc3Cl)s2)cc(N2CCN(CCO)CC2)n1 [Dasatinib] (partner 0.075 µM) (assay: relative viability (nuclei count vs DMSO), 5 days (fraction); higher = more cells survive). Conditions: first compound 1 µM.
Method in brief: (§1)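 Relative viability divides the nuclei count in treated wells by that in vehicle wells. Lung cancer cell lines were seeded in 1536-well plates, dosed by pin tool the next day, and fixed and stained after 5 days in one step with final 0.05% Triton X-100, 1% formaldehyde and 1 ug/ml Hoechst. Dosing was a single drug or a fixed anchor-drug dose plus five library-drug doses (not always all listed) in √10 steps, and values are medians of duplicate plates imaged at 4×.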

Cell Line	relative viability
NCI-H2126	0.659
NCI-H2342	0.307
SK-MES-1	0.424
H3255	0.422
COR-L23	0.604
COR-L 105	0.336
LOU-NH91	0.592
ChaGo-K-1	0.59
NCI-H2170	0.553
NCI-H3122	0.936
HOP-62	0.643
SW 900	0.498
LU99A	0.515
BEN	0.367
HARA	0.216
HCC-78	0.342
NCI-H441	0.64
NCI-H1792	0.81
NCI-H1563	0.487

Same assay, conditions: first compound 3.162 µM

Cell Line	relative viability
NCI-H522	0.781
NCI-H1623	0.487
NCI-H838	0.277
NCI-H1650	0.268
NCI-H2009	0.297
NCI-H1993	0.766
PC-14	0.328
LCLC-103H	0.494
NCI-H596	0.527
NCI-H2228	0.532
EMC-BAC-2	0.34
NCI-H2087	1
HCC-366	0.672
NCI-H1666	0.839
NCI-H647	0.218
LK-2	0.328
NCI-H2126	0.594
NCI-H2342	0.292

Cell Line	relative viability
SK-MES-1	0.332
H3255	0.361
COR-L23	0.514
COR-L 105	0.36
LOU-NH91	0.535
ChaGo-K-1	0.607
NCI-H2170	0.509
NCI-H3122	0.871
HOP-62	0.68
SW 900	0.552
LU99A	0.568
BEN	0.297
HARA	0.297
HCC-78	0.409
NCI-H441	0.618
NCI-H1792	0.892
NCI-H1563	0.47

Same assay, conditions: first compound 10 µM

Cell Line	relative viability
NCI-H522	0.816
NCI-H1623	0.672
NCI-H838	0.208
NCI-H1650	0.289
NCI-H2009	0.279
NCI-H1993	0.841
PC-14	0.284
LCLC-103H	0.413
NCI-H596	0.676
NCI-H2228	0.52
EMC-BAC-2	0.449
NCI-H2087	0.914
HCC-366	1.01
NCI-H1666	0.785
NCI-H647	0.215
LK-2	0.322
NCI-H2126	0.611
NCI-H2342	0.319

Cell Line	relative viability
SK-MES-1	0.345
H3255	0.347
COR-L23	0.631
COR-L 105	0.294
LOU-NH91	0.61
ChaGo-K-1	0.604
NCI-H2170	0.59
NCI-H3122	1.22
HOP-62	0.791
SW 900	0.533
LU99A	0.575
BEN	0.354
HARA	0.241
HCC-78	0.381
NCI-H441	0.693
NCI-H1792	0.91
NCI-H1563	0.563

Same assay, conditions: first compound 31.62 µM

Cell Line	relative viability
NCI-H522	0.892
NCI-H1623	0.597
NCI-H838	0.302
NCI-H1650	0.395
NCI-H2009	0.243
NCI-H1993	0.652
PC-14	0.272
LCLC-103H	0.447
NCI-H596	0.747
NCI-H2228	0.455
EMC-BAC-2	0.297
NCI-H2087	0.745
HCC-366	0.643
NCI-H1666	0.855
NCI-H647	0.187
LK-2	0.336
NCI-H2126	0.622

Cell Line	relative viability
NCI-H2342	0.285
SK-MES-1	0.339
H3255	0.344
COR-L23	0.449
COR-L 105	0.319
LOU-NH91	0.58
ChaGo-K-1	0.586
NCI-H2170	0.627
NCI-H3122	0.765
HOP-62	0.609
SW 900	0.516
LU99A	0.552
BEN	0.26
HARA	0.282
HCC-78	0.274
NCI-H441	0.677
NCI-H1563	0.402

Same assay, conditions: first compound 100 µM

Cell Line	relative viability
NCI-H522	1.01
NCI-H1623	0.576
NCI-H838	0.264
NCI-H1650	0.211
NCI-H2009	0.202
NCI-H1993	0.617
PC-14	0.191
LCLC-103H	0.54
NCI-H596	0.685
NCI-H2228	0.633
EMC-BAC-2	0.334
NCI-H2087	0.824
HCC-366	0.585
NCI-H1666	0.694
NCI-H647	0.169
LK-2	0.317
NCI-H2126	0.587
NCI-H2342	0.319

Cell Line	relative viability
SK-MES-1	0.417
H3255	0.488
COR-L23	0.13
COR-L 105	0.195
LOU-NH91	0.558
ChaGo-K-1	0.589
NCI-H2170	0.635
NCI-H3122	0.882
HOP-62	0.709
SW 900	0.592
LU99A	0.534
BEN	0.379
HARA	0.362
HCC-78	0.305
NCI-H441	0.486
NCI-H1792	0.723
NCI-H1563	0.426

Each cell line was assayed with C(C(=O)C(=O)O)Br [Bromopyruvate] + CCNC(=O)c1noc(-c2cc(C(C)C)c(O)cc2O)c1-c1ccc(CN2CCOCC2)cc1 [Luminespib] (partner 0.01 µM) in the same assay as above. Conditions: first compound 1 µM.
Method in brief: as §1

Cell Line	relative viability
NCI-H522	1.07
NCI-H1623	0.545
NCI-H838	0.282
NCI-H1650	0.19
NCI-H2009	1
NCI-H1993	0.483
PC-14	0.191
LCLC-103H	0.963
NCI-H596	1.05
NCI-H2228	0.182
EMC-BAC-2	0.993
NCI-H2087	0.141
NCI-H1666	1.08
NCI-H647	0.203
LK-2	0.166
NCI-H2126	0.888
NCI-H2342	0.756

Cell Line	relative viability
SK-MES-1	0.615
H3255	0.859
COR-L23	0.611
COR-L 105	0.775
LOU-NH91	0.321
ChaGo-K-1	0.565
NCI-H2170	0.75
NCI-H3122	0.0847
HOP-62	0.887
HCC-44	1.09
SW 900	0.16
LU99A	0.301
BEN	0.587
HARA	0.707
NCI-H441	0.445
NCI-H1792	0.664
NCI-H1563	0.482

Same assay, conditions: first compound 3.162 µM

Cell Line	relative viability
NCI-H522	1.16
NCI-H1623	0.523
NCI-H838	0.359
NCI-H1650	0.224
NCI-H2009	1.09
NCI-H1993	0.997
PC-14	0.184
LCLC-103H	0.998
NCI-H596	1.02
NCI-H2228	0.144
EMC-BAC-2	1.24
NCI-H2087	0.176
NCI-H1666	1.14
NCI-H647	0.306
LK-2	0.182
NCI-H2126	0.892
NCI-H2342	0.775

Cell Line	relative viability
SK-MES-1	0.882
H3255	1
COR-L23	0.602
COR-L 105	0.827
LOU-NH91	0.316
ChaGo-K-1	0.697
NCI-H2170	0.979
NCI-H3122	0.0952
HOP-62	0.97
HCC-44	1.12
SW 900	0.173
LU99A	0.313
BEN	0.342
HARA	0.939
NCI-H441	0.505
NCI-H1792	0.487
NCI-H1563	0.559

Same assay, conditions: first compound 10 µM

Cell Line	relative viability
NCI-H522	1.11
NCI-H1623	0.747
NCI-H838	0.456
NCI-H1650	0.186
NCI-H2009	0.953
NCI-H1993	1.26
PC-14	0.169
LCLC-103H	1.05
NCI-H596	1.14
NCI-H2228	0.148
EMC-BAC-2	1.29
NCI-H2087	0.16
NCI-H1666	0.989
NCI-H647	0.108
LK-2	0.158
NCI-H2126	0.943
NCI-H2342	0.661

Cell Line	relative viability
SK-MES-1	0.948
H3255	1.05
COR-L23	0.815
COR-L 105	0.925
LOU-NH91	0.372
ChaGo-K-1	0.646
NCI-H2170	0.689
NCI-H3122	0.105
HOP-62	0.84
HCC-44	1.54
SW 900	0.197
LU99A	0.273
BEN	0.66
HARA	0.486
NCI-H441	0.323
NCI-H1792	0.53
NCI-H1563	0.489

Same assay, conditions: first compound 31.62 µM

Cell Line	relative viability
NCI-H522	1.28
NCI-H1623	0.489
NCI-H838	0.324
NCI-H1650	0.177
NCI-H2009	1.01
NCI-H1993	0.862
PC-14	0.157
LCLC-103H	0.938
NCI-H596	0.951
NCI-H2228	0.145
EMC-BAC-2	1.22
NCI-H2087	0.175
NCI-H1666	1.04
NCI-H647	0.109
LK-2	0.161
NCI-H2126	0.896
NCI-H2342	0.57

Cell Line	relative viability
SK-MES-1	0.805
H3255	0.896
COR-L23	0.694
COR-L 105	0.692
LOU-NH91	0.348
ChaGo-K-1	0.705
NCI-H2170	0.574
NCI-H3122	0.0703
HOP-62	0.934
HCC-44	0.968
SW 900	0.166
LU99A	0.248
BEN	0.303
HARA	0.75
NCI-H441	0.524
NCI-H1792	0.573
NCI-H1563	0.466

Same assay, conditions: first compound 100 µM

Cell Line	relative viability
NCI-H522	1.29
NCI-H1623	0.504
NCI-H838	0.282
NCI-H1650	0.182
NCI-H2009	0.708
NCI-H1993	0.833
PC-14	0.203
LCLC-103H	0.878
NCI-H596	0.282
NCI-H2228	0.193
EMC-BAC-2	1.22
NCI-H2087	0.161
NCI-H1666	0.844
NCI-H647	0.4
LK-2	0.199
NCI-H2126	0.874
NCI-H2342	0.531

Cell Line	relative viability
SK-MES-1	0.881
H3255	1.04
COR-L23	0.119
COR-L 105	0.552
LOU-NH91	0.321
ChaGo-K-1	0.417
NCI-H2170	0.583
NCI-H3122	0.0612
HOP-62	0.9
HCC-44	0.948
SW 900	0.21
LU99A	0.213
BEN	0.295
HARA	0.802
NCI-H441	0.38
NCI-H1792	0.423
NCI-H1563	0.532
